For the assay, the target named is T1, human hyaluronidase Hyal-1 (Homo sapiens, UniProt Q12794).
T1 construct: gene HYAL1
T1 sequence (Q12794 22-435): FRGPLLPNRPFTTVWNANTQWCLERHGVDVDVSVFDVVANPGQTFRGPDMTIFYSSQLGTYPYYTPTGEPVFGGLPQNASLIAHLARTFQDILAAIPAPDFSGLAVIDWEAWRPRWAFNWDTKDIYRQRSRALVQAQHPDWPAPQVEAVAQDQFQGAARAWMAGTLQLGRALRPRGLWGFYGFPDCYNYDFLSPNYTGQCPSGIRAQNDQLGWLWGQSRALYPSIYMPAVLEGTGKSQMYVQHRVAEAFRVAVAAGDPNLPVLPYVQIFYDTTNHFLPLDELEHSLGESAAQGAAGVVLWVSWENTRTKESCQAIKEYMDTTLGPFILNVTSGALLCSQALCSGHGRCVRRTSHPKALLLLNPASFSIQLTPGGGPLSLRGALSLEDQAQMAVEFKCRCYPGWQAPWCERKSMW
Description: whole-cell "stains-all" hyaluronidase activity assay with surface-displayed Hyal-1, dose-response. The assay is classed as cell-based.

Where two headings read alike, the source gives them in different places.

For orientation: IC50 means the concentration needed to halve the response being measured. Turning to `C[C@@H]1O[C@@H](O[C@H]2[C@H](OC(=O)[C@]34CCC(C)(C)C[C@H]3C3=CC[C@@H]5[C@@]6(C)CC[C@H](O[C@H]7O[C@H](C(=O)O)[C@@H](O)[C@H](O[C@@H]8OC[C@@H](O)[C@H](O)[C@H]8O)[C@H]7O[C@@H]7O[C@H](CO)[C@H](O)[C@H](O)[C@H]7O)[C@@](C)(C=O)[C@@H]6CC[C@@]5(C)[C@]3(C)CC4)O[C@H](C)[C@H](O[C@@H]3O[C@H](C)[C@@H](O)[C@H](O)[C@H]3O)[C@@H]2O)[C@H](O)[C@H](O)[C@H]1O[C@@H]1OC[C@@H](O)[C@H](O[C@@H]2OC[C@@H](O)[C@H](O)[C@H]2O)[C@H]1O` [SA1641], the IC50 (read-out: IC50 Value) turned out to be 296 µM.

As for `CC1(C)[C@@H](O[C@H]2O[C@H](C(=O)O)[C@@H](O)[C@H](O)[C@H]2O[C@@H]2O[C@H](C(=O)O)[C@@H](O)[C@H](O)[C@H]2O)CC[C@]2(C)[C@H]3C(=O)C=C4[C@@H]5C[C@@](C)(C(=O)O)CC[C@]5(C)CC[C@@]4(C)[C@]3(C)CC[C@@H]12` [glycyrrhizic acid], the midpoint of inhibition, the IC50, lay at 177 µM.

As to gypsophila saponin 2, the IC50 (read-out: IC50 Value) came to 108 µM.

The values are drawn from publication PMC6331893, “Autodisplay of Human Hyaluronidase Hyal-1 on Escherichia coli and Identification of Plant-Derived Enzyme Inhibitors” (Molecules, 2015).
